From PubChem BioAssay (NCI) come the findings set out here.

“And” between values parts separate entries of the source, which are not always exact repeats. Equal values may be shown once.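 Assay format: 96-well plates, 48-hour exposure. GI50 = concentration required for 50% inhibition of growth. TGI denotes the concentration required for complete inhibition of growth.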

Among the test systems are ACHN renal; HOP-92 NSCLC; MOLT-4 leukemia; SNB-75 CNS; UACC-62 melanoma; CCRF-CEM leukemia; SW-620 colon; 786-0 renal; HCT-15 colon; M14 melanoma.
Common to all, as to assay: NCI anticancer screen, dose series, 48 h

Consider `Cc1cc(N/N=C/c2nc(-c3ccc(Br)cc3)oc2C)c2cc(Br)ccc2n1`, for which the GI50 was 2860 nM in the assay with ACHN renal; 2500 nM in the assay on HOP-92 NSCLC; 2650 nM in the assay on MOLT-4 leukemia; 2170 nM with SNB-75 CNS; 1910 nM in the assay with UACC-62 melanoma; 2000 nM in the assay on CCRF-CEM leukemia. Also, the GI50 with SW-620 colon is 2040 nM; with 786-0 renal, 1700 nM; in the assay with HCT-15 colon it was 2880 nM; in the assay with M14 melanoma, 3580 nM. Further, the TGI is 8.05 µM in the assay with ACHN renal; 14.4 µM in the assay on HOP-92 NSCLC; more than 100 µM in the assay on MOLT-4 leukemia; 6.66 µM in the assay on SNB-75 CNS; 4.58 µM in the assay with UACC-62 melanoma; 29.7 µM in the assay on CCRF-CEM leukemia. In addition, the TGI in the assay on SW-620 colon was 4.81 µM; in the assay with 786-0 renal, 3.42 µM; with HCT-15 colon it was 10.2 µM; in the assay on M14 melanoma it was 13.8 µM.

In the case of `COc1ccc(OC)c2c(/C=C/c3ccc(N(C)C)cc3)ccnc12`, the TGI is more than 10 µM in the assay on ACHN renal; more than 10 µM in the assay with HOP-92 NSCLC; more than 10 µM in the assay with MOLT-4 leukemia; more than 10 µM with SNB-75 CNS; more than 10 µM in the assay with UACC-62 melanoma; 9.28 µM in the assay with CCRF-CEM leukemia. Also, the TGI with SW-620 colon, in the assay on 786-0 renal, in the assay on HCT-15 colon and in the assay with M14 melanoma was more than 10 µM throughout.

Turning to `CC(C)CNC(=O)O`, the TGI in the assay with ACHN renal, in the assay with HOP-92 NSCLC, with MOLT-4 leukemia, in the assay with SNB-75 CNS, in the assay with UACC-62 melanoma and in the assay with CCRF-CEM leukemia was more than 100 µM throughout. Further, the TGI with SW-620 colon, in the assay with 786-0 renal, with HCT-15 colon and in the assay on M14 melanoma was more than 100 µM each time.

In the case of `CC(C)CCCC(C)[C@H]1CCC2[C@H]3C(CC[C@@]21C)[C@@]1(C)CCC=C[C@]12C[C@@H]2[C@@H]3O` (some centres undefined), the TGI with ACHN renal, with HOP-92 NSCLC, in the assay with MOLT-4 leukemia, with SNB-75 CNS, in the assay with UACC-62 melanoma and with CCRF-CEM leukemia was more than 100 µM each time. Further, the TGI in the assay on SW-620 colon, in the assay with 786-0 renal, in the assay with HCT-15 colon and with M14 melanoma was more than 100 µM in each case.

As to `COc1cc2c(c(OC)n1)[C@]1(O)[C@H](O)[C@H](CN(C)C)[C@@H](c3ccccc3)[C@]1(c1ccc(C#N)cc1)O2`, the GI50 in the assay on ACHN renal is < 11.6 nM and 11.7 nM; with HOP-92 NSCLC, 52.1 nM and 34.6 nM; in the assay with MOLT-4 leukemia, less than 10 nM; in the assay on SNB-75 CNS, 100 nM and 47 nM; in the assay on UACC-62 melanoma, 35.9 nM and 35.8 nM; with CCRF-CEM leukemia it was less than 10 nM. The GI50 in the assay on SW-620 colon was 12.4 nM and < 10 nM; in the assay with 786-0 renal, 44.3 nM and 31.3 nM; in the assay with HCT-15 colon it was 24.3 nM and 19.7 nM; with M14 melanoma, 14.7 nM and 10.2 nM. For the same compound, the TGI was 0.148 µM and 0.558 µM with ACHN renal; 4.3 µM and 0.991 µM in the assay on HOP-92 NSCLC; 4.58 µM and 2.02 µM in the assay with SNB-75 CNS; 2.63 µM and 4.34 µM in the assay with UACC-62 melanoma; > 52.7 µM and 13.6 µM in the assay with CCRF-CEM leukemia; 3.37 µM and 10.4 µM in the assay on SW-620 colon. Also, the TGI in the assay with 786-0 renal is 7.37 µM and 4.06 µM; with HCT-15 colon it was 3.65 µM and 3.44 µM; in the assay with M14 melanoma it was 0.193 µM and 0.114 µM.
